Measured values taken from patent publication US8758770B2 (Research Development Foundation, priority 2006, dated 2014).
Where no end group is shown, it is not given here.

What was measured:
Format in all cases: in vivo
[1] = test system: EAE in C57BL/6 mice immunized with MOG peptide 35-55; assay: Oral ACTH treatment of EAE mice, clinical score; parameters: key to Clinical Score: 0 = no disease to 6 = paraplegia with severe weakness/ataxia
Method: EAE is a T cell mediated inflammatory autoimmune process of the CNS that resembles in some aspects the human demyelinating disease multiple sclerosis. It thus provides a useful animal model for the evaluation of potential therapies for MS. […] This protocol mimics clinical practice since patients are treated with ACTHAR® Gel after they experience a clinical exacerbation of their disease, albeit clinical treatment is via intramuscular injection.
Clinical severity is graded daily by a blinded observer as follows: 0=no disease; 1=minimal or mild hind limb weakness (associated with limp tail); 2=moderate hind limb weakness or mild ataxia (waddling gait and/or poor righting ability); 3=moderate to severe hind limb weakness; 4=severe hind limb weakness or moderate ataxia; 5=paraplegia with no more than moderate four limb weakness; 6=paraplegia with severe four limb weakness or severe ataxia. […]

[2] = test system: EAE in C57BL/6 mice immunized with MOG peptide 35-55; assay: Spinal cord foci of inflammation after oral ACTH in EAE mice; conditions: Ex 1-A, control mock placebo group 4.72±0.34
Method: Following administration, clinical outcome is measured in at least two ways: by comparing the difference between group active treatment scores and placebo group scores from day 26-33 post immunization, and comparing group mean scores directly (day 17-35 post-immunization). Following sacrifice, spinal cords are removed and evaluated independently for foci of inflammation by a blinded observer.

[3] = Toxicity of oral ACTH administered over an extended time period; conditions: orally administered to mice over an extended time period

In the case of “SYSMEHFRWGKPVGKKRRPVKVYPDGAEDQLAEAFPLEF [ACTH]”, the “recovery from EAE attack compared to placebo, difference between group active treatment and placebo group scores” value ([1]; Ex 1-A, 10 or 1000 microgram oral dose, 10 microgram p<0.03, 1000 microgram p<0.05) is reported as “significantly improved recovery”, the “recovery compared to placebo, comparing group mean scores directly” value ([1]; Ex 1-A, oral doses of 10, 100, and 1000 microgram) is reported as “significantly faster recovery” and the “recovery from EAE attack compared to placebo, difference between group active treatment and group placebo scores” value ([1]; Ex 1-B, 10 IU p<0.0001, 100 IU p<0.0003, 1000 IU p<0.0007) is reported as “significantly improved recovery”. The “recovery from EAE attack compared to placebo, comparing group mean scores directly” value ([1]; Ex 1-B, oral 10 and 1000 IU, 10 IU p<0.00001, 100 IU p<0.00006, 1000 IU p<0.00003) was “significantly improved recovery”, the “Clinical Score” value ([1]; Table 1, Ex 1-A, ACTH 10 microgram oral daily, day 28, control 2.88) was 1.38 and the “Clinical Score” value ([1]; Table 1, Ex 1-A, ACTH 10 microgram oral daily, day 32, control 3) was 1.38. For the same sequence, the “Clinical Score” value ([1]; Table 1, Ex 1-A, ACTH 10 microgram oral daily, day 33, control 3) was 1.375, the “Clinical Score” value ([1]; Table 1, Ex 1-A, ACTH 10 microgram oral daily, day 35, control 3.13) was 1.38 and the “Clinical Score” value ([1]; Table 1, Ex 1-A, ACTH 100 microgram oral daily, day 22, control 2.63) was 2.5. For the same sequence, the “Clinical Score” value ([1]; Table 2, Ex 1-B, 1000 IU oral daily, day 40, control […]) was 1.13, the “Clinical Score” value ([1]; Table 2, Ex 1-B, ACTH 10 IU oral daily, day 32, control […]) was 1.38 and the “Clinical Score” value ([1]; Table 2, Ex 1-B, ACTH 10 IU oral daily, day 33, control 2) was 1. For the same sequence, the “Clinical Score” value ([1]; Table 2, Ex 1-B, ACTH 10 IU oral daily, day 40, control […]) was 1.25, the “Clinical Score” value ([1]; Table 2, Ex 1-B, ACTH 100 IU oral daily, day 32, control […]) was 1.38 and the “Clinical Score” value ([1]; Table 2, Ex 1-B, ACTH 100 IU oral daily, day 40, control […]) was 1.38. For the same sequence, the “mean group inflammatory score (inflammatory foci, spinal cord)” value ([2]; 10 microgram fed group, p<0.008) was 3.05±0.3, the “mean group inflammatory score (inflammatory foci, spinal cord)” value ([2]; 1000 microgram fed group, p<0.00002) was 2.27±0.23 and the toxicity [3] was “no detectable toxicity”.
